Consider 1 molecule from patent US20220017486A1, “DOCK1-INHIBITING COMPOUND AND USE THEREOF” (KYUSHU UNIVERSITY, NATIONAL UNIVERSITY CORPORATION, priority 2018, published 2022).

For series [1], the system named is T cells (mouse spleen cells). Description: Viability of lymphocytes (propidium iodide, flow cytometry). The format is cell-based. The conditions noted are these: in words, 1-hour culture. The method, then:
Specifically, 1×10^6 mouse spleen cells were suspended in 100 μL of RPMI-1640 medium containing 0.5% BSA, and DMSO in which a predetermined concentration of each test compound was dissolved or DMSO alone was added thereto to a final DMSO concentration of 0.2%. After 1-hour culture at 37° C., 2 μL of a propidium iodide staining solution (BD Pharmingen) was added and incubated on ice for 30 minutes, followed by flow cytometry analysis. The percentage of the viable cells under each condition was calculated, considering negative cells to be viable cells.

For series [2], the system named is mouse lung carcinoma cell line (3LL cells). Description: Cell invasion inhibition assay (Matrigel invasion chamber). The class given is cell-based. Conditions: in words. In a few lines: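 Matrigel invasion chambers (8 μm pores); cells in serum-free DMEM above, 10% FCS DMEM below, compound in both, 0.2% DMSO final. 3LL (K-Ras G12C), PANC02 and MDA-MB-157 (Rac1 P29S) cultured 22 h (3LL, PANC02) or 48 h (MDA-MB-157) at 37° C. Invaded cells Diff-Quick-stained and counted; % invasion vs DMSO control, % inhibition = 100 − % invasion.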

Series [3] relates to mouse lung carcinoma cell line (3LL). Kind of series: Tumor growth of subcutaneously transplanted mouse lung carcinoma cells. The format is in vivo, C57BL/6 mice. The method, then: The mouse lung carcinoma cell line (3LL) was suspended in 200 μL of PBS(−), and transplanted (5×10^5 cells per mouse) into the dorsal subcutaneous region of C57BL/6 mice (6 weeks old). To a 6:1:1 mixture of PBS/Cremophor EL/ethanol, RT-22 as a representative of the compounds of the present invention was added to a concentration of 0.25 mg/300 μL, and the resulting mixture was loaded into an SMP-300 micro infusion pump (iPRECIO), which was subcutaneously implanted on the previous day of the transplantation, to perform continuous intravenous administration (n=5 mice). The control group was only administered with an equivalent volume of a solvent (a 6:1:1 mixture of PBS/Cremophor EL/ethanol) (n=6 mice). The transverse and longitudinal diameters of the tumor mass were measured over time for a period of 4 weeks from the start of administration, and the tumor volume (V) was calculated according to the formula: V=π/6x√((transverse diameter×longitudinal diameter)^3).

For series [4], the system named is mouse lung carcinoma cell line (3LL cells) and mouse pancreatic cancer cell line (PANC02 cells). Description: Inhibition of macropinocytosis in cancer cells (TMR-dextran uptake). The class given is cell-based. Conditions: in words, 3LL and PANC02 cells. The method, then:
Therefore, this Pharmacological Test evaluated the inhibitory effect of the compounds of the present invention on macropinocytosis in a mouse lung carcinoma cell line (3LL cells) and a mouse pancreatic cancer cell line (PANC02 cells) as a target. Specifically, 150 μL of mouse lung carcinoma cell line (3LL) or mouse pancreatic cancer cell line (PANC02) (4×10^4 cells) was seeded on the glass portion of fibronectin-coated glass-bottom culture dishes. After 16-hour culture at 37° C., the medium was changed to DMEM (serum free), and cultured for another 24 hours to allow the cells to be serum-starved. Subsequently, the medium was changed to 2 mL of serum-free medium containing DMSO alone (control) or DMSO in which each test compound was dissolved, followed by culture for 1 hour for pretreatment. The final concentration of DMSO was adjusted to 0.2 mass %.
DMSO alone (control) or DMSO in which a predetermined concentration of each test compound was dissolved was added in the same manner as above to TMR-dextran (final concentration: 500 μg/mL)-containing DMEM (with 10 mass % FBS), and the thus-obtained medium (180 μL) was added to the cancer cells pretreated as above, followed by incubation at 37° C. for 1 hour. […] The macropinocytosis activity was measured based on the number of TMR-dextran spots per cell. […]

“Also recorded” adds a separate entry of the source.

On to `COC(=O)c1cc(S(=O)(=O)N2CCCC2)cn1CC(=O)c1ccc(-c2cccc(C(F)(F)F)c2)cc1` [RT-22, methyl 1-(2-oxo-2-(3′-(trifluoromethyl)-[1,1′-biphenyl]-4-yl)ethyl)-4-(pyrrolidin-1-yl-sulfonyl)-1H-pyrrole-2-carboxylate], for which the “viability of T cells” value in series [1] is “no effect”. In addition, the “percent cell invasion inhibition compared with TBOPP” value in series [2] was “higher percent cell invasion inhibition than TBOPP; also recorded: higher than those of TBOPP”. Moreover, the “tumor size as % of that of the control group” value in series [3] (3LL s.c. in C57BL/6 mice, continuous intravenous administration, 0.25 mg/300 μL, day 26 to day 29) lay within 64 to 69%. The “tumor growth inhibition compared with TBOPP” value in series [3] (in words) was “more effective in inhibiting tumor growth than TBOPP”. For the same molecule, in series [4], the “macropinocytosis activity in cancer cells” value is reported as “inhibitory effect on macropinocytosis activity”.
